For one data set, the system named is Xyl7. Description: Effect of different chemical agents and metal ions on the enzymatic activity of Xyl7. The data set is classed as biochemical, microorganisms in termite gut. Particulars: for Relative Activity (%) of Xyl7: Metal Ion or Chemical Agent 10 mM, enzyme without agent = 100%; for action on Xyl7 (in words) / increase for the activity of the enzyme: 10 mmol/L. How it is done:
(§1) In a 100 μl reaction system, birch xylan was added to a final concentration of 1% (w/w), and Na2HPO4/NaH2PO4 buffer (pH7.0) was added to a final concentration of 100 mM. A suitable amount of enzyme solution diluted by the abovementioned buffer was added to the reaction system for reaction at 50[…] for 10 minutes. 100 μl DNS were added to stop the reaction. For the control, 100 μl DNS were firstly added to the above reaction system before adding the enzyme solution. The reaction mixtures were subjected to a boiled water bath for 5 minutes to develop color. Absorbance value at 540 nm was detected by a microplate reader. After subtracting the absorbance value of the control from that of the sample, the enzymatic activity unit (U) was calculated based on the standard curve.
Various compounds were added into the reaction system to a final concentration of 10 mmol/L. Enzymatic activity was tested according to the above standard enzymatic activity detection steps. The specific activity value of the enzyme without treated by any chemical agent or metal ion was used as a reference value and its relative activity was defined as 100%.

Data set [1] is described as follows: Standard enzymatic activity detection (DNS method) on birch xylan. Particulars: standard steps: 1% birch xylan, pH7.0, 50, 10 minutes. The data set is classed as biochemical. How it is done:
Enzymatic activity of the endo-1,4-β-xylanase was tested by a DNS method as follows:
10 g NaOH were weighed and dissolved in about 400 ml ddH2O. 10 g dinitrosalicylic acid, 2 g phenol, 0.5 g anhydrous sodium sulfite and 200 g potassium sodium tartrate tetrahydrate were weighed and dissolved in about 300 ml ddH2O. The two solutions were mixed, diluted to 1 liter and preserved in dark.
100 μl DNS were added into each of the above standard samples. The mixtures were subjected to boiled water bath for 5 minutes for developing color. Absorbance value at 540 nm was detected by a microplate reader. Standard sample 1 was a blank control. The absorbance value of the blank control was subtracted from that of each sample and then the standard curve was plotted.
as §1
Definition of enzymatic activity unit (U): 1U refers to the amount of enzyme required for catalytically hydrolyzing xylan to produce 1 μmol xylose.
Definition of specific activity unit: enzymatic activity of 1 mg protein (U/mg).
Various substrates with a final concentration of 2% (w/w) were treated by a suitable amount of enzymes at pH7.0 and 50[…] for 10 minutes. Enzymatic activity was tested according to the above standard enzymatic activity detection steps. […] No detectable enzymatic activity was found for the other test substrates. […]

Data set [2] in a line: Detection on the optimum temperature. The data set is classed as biochemical. Particulars: compared with Xyl7. How it is done:
as §1
Enzymatic activity was detected according the above standard enzymatic activity detection steps at pH 7.0 and a temperature in the range of 25-80° C. The optimum temperature of Xyl7 was in the range of 50-55° C., with an activity at 50[…] slightly higher than that at 55[…]. Thus, the specific activity value of the enzyme at 50[…] was used as a reference value and its relative activity was defined as 100%. The relative activity of the enzyme at each temperature was a ratio between the specific activity value of the enzyme at each temperature and the reference value.

`[Al+3]` [Al^3+]: the “Relative Activity (%) of Xyl7” value in the data set on Xyl7 is 77.68 ± 2.32%.
Same read-out and setting: the result for `[Ba+2]` [Ba^2+] reads 90.71 ± 1.94%; that for `[Ca+2]` [Ca^2+], 90.1 ± 12.82%.
Turning to `[Co+2]` [Co^2+], in the data set with Xyl7, the “action on Xyl7 (in words)” value was “could activate” and the “Relative Activity (%) of Xyl7” value is 109.14 ± 3.45%.
The matching figures for `[Cu+2]` [Cu^2+]: “could activate” and 108.69 ± 2.99%.
As for `O=C(O)CN(CCN(CC(=O)O)CC(=O)O)CC(=O)O` [EDTA], in the data set on Xyl7, the “action on Xyl7 (in words)” value is given as “obviously inhibited” and the “Relative Activity (%) of Xyl7” value is given as 88.65 ± 1.62%.
Regarding `[Fe+2]` [Fe^2+], in the data set on Xyl7, the “action on Xyl7 (in words)” value is “obviously inhibited” and the “Relative Activity (%) of Xyl7” value was 25.33 ± 0.46%. For the same molecule, the “Relative Activity (%) of Xyl7” value in the data set with Xyl7 (listed as Fe^3+) was determined as 90.41 ± 3.36%.
As for `[K+]` [K^+], in the data set on Xyl7, the “action on Xyl7 (in words)” value is given as “could activate”, the “increase for the activity of the enzyme” value is on record as “about 20%” and the “Relative Activity (%) of Xyl7” value was found to be 125.6 ± 11.98%.
For `[Mg+2]` [Mg^2+], in the data set with Xyl7, the “action on Xyl7 (in words)” value is recorded as “no obvious action” and the “Relative Activity (%) of Xyl7” value stood at 101.53 ± 3.02%.
On to `[Mn+2]` [Mn^2+], for which, in the data set on Xyl7, the “action on Xyl7 (in words)” value is reported as “could activate”, the “increase for the activity of the enzyme” value is “about 20%” and the “Relative Activity (%) of Xyl7” value was determined as 125.73 ± 7.8%.
For `[Ni+2]` [Ni^2+], in the data set with Xyl7, the “action on Xyl7 (in words)” value was “obviously inhibited” and the “Relative Activity (%) of Xyl7” value was determined as 44.25 ± 4.98%.
In the same order, the values of `[Zn+2]` [Zn^2+] are “obviously inhibited” and 64.88 ± 1.36%.

B1: Xyl7R3: fragment of Xyl7 consisting of amino acids 19-272 of SEQ ID NO:2 (protein)
chain: AQGPTWTTSTIQAYNGYDYELWNQNNAGTVSMKLTGDNGSGASAVGGTFTATWSNTQNVLFRSGKKWGSSSNQNHTQIGNMSINFAATWSSTDNVKMLGVYGWAYFTSANVPTKQENGTNASFSNQIEYYIIQDRGSYNPASGGTNAKKYGSATIDGIAYDFYVCDRINQPMLTGNGNFKQFFSVPQSASAHRTSGTISVSQHFNKWHELGMKMDGPLYEVAMKVESYTGSGSSNGSATVTKNLLTIGGTTPTP
modifications: Intestinal tract metagenome of termite
For B1, the “specific activity by the standard enzymatic activity detection steps of Example 3” value in data set [1] is on record as 8775 U/mg. Also, the “optimum temperature and tolerance on temperature” value in data set [2] is “almost identical to those of Xyl7”.

B2: Xyl7R2: fragment of Xyl7 consisting of amino acids 19-267 of SEQ ID NO:2 (protein)
chain: AQGPTWTTSTIQAYNGYDYELWNQNNAGTVSMKLTGDNGSGASAVGGTFTATWSNTQNVLFRSGKKWGSSSNQNHTQIGNMSINFAATWSSTDNVKMLGVYGWAYFTSANVPTKQENGTNASFSNQIEYYIIQDRGSYNPASGGTNAKKYGSATIDGIAYDFYVCDRINQPMLTGNGNFKQFFSVPQSASAHRTSGTISVSQHFNKWHELGMKMDGPLYEVAMKVESYTGSGSSNGSATVTKNLLTIGG
modifications: Intestinal tract metagenome of termite
B2: the “specific activity by the standard enzymatic activity detection steps of Example 3” value in data set [1] is recorded as 8560 U/mg.

Values taken from patent US20160201045A1, “Endo-xylanase and Coding Gene and Use Thereof” (SHANGHAI INSTITUTES FOR BIOLOGICAL SCIENCES CHINESE ACADEMY …, priority 2013, published 2016).
